# Tested on: 782815-120-R-J1-PDC complex spheroid viability
# Assay: Anticancer human tumor 782815-120-R-J1-PDC patient-derived colon adenocarcinoma cell line growth inhibition [RAS]
# Conditions: for IC50: curve of first compound; for viability, T/C: stronger effect = lower value
# Source text: RAS pathway inhibitors in Combinations in Complex Spheroids
# A high-throughput screen of multi-cell type tumor spheroids was designed to identify active combinations of RAS pathway inhibitors and targeted small molecules. Complex spheroids include a stromal component modeled by human endothelial cells (HUVEC) and fibroblasts modeled by human mesenchymal stem cells (MSCs). The concentration ranges selected for each drug and investigational agent were based upon clinically achievable concentrations if the clinical Cmax of the agent was known.
# Compounds. The drugs and investigational agents: abemaciclib (NSC768073), cobimetinib (NSC768068), divarasib (GDC6063, NSC841802), docetaxel (NSC628503), GDC-1971 (RLY-1971, NSC841576), gemcitabine (NSC613327), inavolisib (NSC800729), ipatasertib (NSC767898), KB-0742 (NSC834161), MRTX-1133 (NSC836407), osimertinib (NSC779217), RMC-4630 (NSC839698), RMC-6236 (NSC851965), RMC-6291 (NSC852671), Ro-3306 (NSC812927), sapanisertib (NSC764658), SN-38 (NSC673596), staurosporine (NSC755774), SY5609 (NSC837396), and tovorafenib (DAY101, NSC766906), were obtained from the National Cancer Institute (NCI) Developmental Therapeutics Program Chemical Repository. The FDA-approved anticancer drug set is available from the NCI Developmental Therapeutics Program. […] The stock solutions were prepared in dimethyl sulfoxide (DMSO, Sigma-Aldrich, St. Louis, MO, cat. D2650) at 800-fold the tested concentration and stored at -70 degrees C prior to their use. All drugs and investigational agents were tested over a range starting from a high concentration at or near the clinical Cmax and decreasing in half-log increments. If the clinical Cmax for an agent had not been determined, the highest concentration tested was 10 microM.
# Cell Culture. All cells were maintained in an incubator at 37 degrees C and 5% CO2 with 95% humidity. The PDC lines were cultured according to standard operating procedures established by the NCI PDMR. All PDCs were thawed and cultured in Matrigel-coated flasks prepared with a working solution of 1X Ham's F-12 nutrient mix, without supplementation (Invitrogen, Waltham, MA, cat. 11765054), 100 U/mL penicillin-streptomycin (Invitrogen, cat. 15140122), and 2.5% Matrigel (Corning Inc., Corning, NY, cat. 354248) for the first three passages. The 362531-283-R-J2-PDC and 782815-120-R-J1-PDC lines were cultured in 6C/Colon 1B media, which includes advanced DMEM/F-12 (Thermo Fisher Scientific, cat. 12634028), 10 mM HEPES (Thermo Fisher Scientific, cat. 15630080), 1X GlutaMAX supplement (Thermo Fisher Scientific, cat. 35050061), 0.1 mg/mL primocin (InvivoGen, San Diego, CA, cat. ant-pm-2), 10% defined fetal bovine serum, heat inactivated (HyClone Laboratories Inc., Logan, UT, cat. SH30070.03HI), 50% L-WRN conditioned media (ATCC, cat. CRL-3276), 1.25 mM N-Acetyl-L-cysteine (Sigma-Aldrich, cat. A9165), 10 mM nicotinamide (Sigma-Aldrich, cat. N0636), 1X B-27 supplement (Thermo Fisher Scientific, cat. 17504044), 1X N-2 supplement (Thermo Fisher Scientific, cat. 17502048), 50 ng/mL human EGF (Thermo Fisher Scientific, cat. PHG0311), and 10 microM Y-27632 dihydrochloride (Tocris Bioscience, cat. 1254). The K12877-001-R-J1-PDC line was cultured in 6I media, which includes all 6C/Colon 1B media plus 10 ng/mL human FGF-10 (PeproTech, cat. 100-26), 1 ng/mL human FGF-2 (PeproTech, cat. 100-18B), 1 µM prostaglandin E2 (Tocris Bioscience, cat. 2296), […] hydrocortisone (Sigma-Aldrich, cat. H4001), and […] bovine insulin (Sigma-Aldrich, cat. I6634). The K86415-001-R-J1-PDC line was cultured in 6D media, which includes all 6C/Colon 1B media components minus the L-WRN conditioned media. The 485176-168-R4-J1-PDC was cultured in PANC media, which includes all 6C/Colon 1B media plus 100 ng/mL human FGF-10 (PeproTech, cat. 100-26), 500 nM SB-431542 (Selleckchem, cat. S1067), and 10 nM gastrin (Tocris Bioscience, cat. 3006). […]
# 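Note: spheroids exposed to compounds for 7 days before reading.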
# 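Throughout, for viability, T/C: 100% = DMSO vehicle control viability.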
smiles,measurement,setting,value
Cc1nc(N2CCC3(CC2)COC(C)C3N)c(CO)nc1Sc1ccnc(N)c1Cl (configuration not stated) + C=CC(=O)N1CCN(c2nc(OCC3CCCN3C)nc3c(F)c(-c4nc(N)cc(C)c4C(F)(F)F)c(Cl)cc23)C(C)C1,IC50,second compound 0.00316 µM,> 10 µM
same,IC50,second compound 0.01 µM,> 10 µM
same,IC50,second compound 0.0316 µM,> 10 µM
same,IC50,second compound 0.1 µM,> 10 µM
same,IC50,second compound 0.316 µM,> 10 µM
same,IC50,second compound 1 µM,> 10 µM
same,"viability, T/C","second compound 0.00316 µM, first compound 0.0316 µM",92.3%
same,"viability, T/C","second compound 0.00316 µM, first compound 0.1 µM",107%
same,"viability, T/C","second compound 0.00316 µM, first compound 0.316 µM",97.4%
same,"viability, T/C","second compound 0.00316 µM, first compound 1 µM",96%
same,"viability, T/C","second compound 0.00316 µM, first compound 3.16 µM",106%
same,"viability, T/C","second compound 0.00316 µM, first compound 10 µM",101%
same,"viability, T/C","second compound 0.01 µM, first compound 0.0316 µM",103%
same,"viability, T/C","second compound 0.01 µM, first compound 0.1 µM",115%
same,"viability, T/C","second compound 0.01 µM, first compound 0.316 µM",96.2%
same,"viability, T/C","second compound 0.01 µM, first compound 1 µM",108%
same,"viability, T/C","second compound 0.01 µM, first compound 3.16 µM",104%
same,"viability, T/C","second compound 0.01 µM, first compound 10 µM",100%
same,"viability, T/C","second compound 0.0316 µM, first compound 0.0316 µM",101%
same,"viability, T/C","second compound 0.0316 µM, first compound 0.1 µM",98.9%
same,"viability, T/C","second compound 0.0316 µM, first compound 0.316 µM",97.8%
same,"viability, T/C","second compound 0.0316 µM, first compound 1 µM",97.3%
same,"viability, T/C","second compound 0.0316 µM, first compound 3.16 µM",95.1%
same,"viability, T/C","second compound 0.0316 µM, first compound 10 µM",101%
same,"viability, T/C","second compound 0.1 µM, first compound 0.0316 µM",98.7%
same,"viability, T/C","second compound 0.1 µM, first compound 0.1 µM",110%
same,"viability, T/C","second compound 0.1 µM, first compound 0.316 µM",98.1%
same,"viability, T/C","second compound 0.1 µM, first compound 1 µM",105%
same,"viability, T/C","second compound 0.1 µM, first compound 3.16 µM",104%
same,"viability, T/C","second compound 0.1 µM, first compound 10 µM",97.9%
same,"viability, T/C","second compound 0.316 µM, first compound 0.0316 µM",103%
same,"viability, T/C","second compound 0.316 µM, first compound 0.1 µM",102%
same,"viability, T/C","second compound 0.316 µM, first compound 0.316 µM",103%
same,"viability, T/C","second compound 0.316 µM, first compound 1 µM",105%
same,"viability, T/C","second compound 0.316 µM, first compound 3.16 µM",108%
same,"viability, T/C","second compound 0.316 µM, first compound 10 µM",102%
same,"viability, T/C","second compound 1 µM, first compound 0.0316 µM",98.6%
same,"viability, T/C","second compound 1 µM, first compound 0.1 µM",102%
same,"viability, T/C","second compound 1 µM, first compound 0.316 µM",95.8%
same,"viability, T/C","second compound 1 µM, first compound 1 µM",100%
same,"viability, T/C","second compound 1 µM, first compound 3.16 µM",99.9%
same,"viability, T/C","second compound 1 µM, first compound 10 µM",104%

# Source: PubChem BioAssay AID2060887 (Molecular Pharmacology Branch, DTP, NCI, 2025)
